Active and inactive are the calls of the source. The calls are words filed in the database; no cut-off is given here.
Tests used:
Mus musculus [1] = assay: Antiinflammatory activity LPS induced mouse model assessed as reduction in IL-7 at 1 to 5 mg/kg, ip preincubated for 1 hr followed by LPS stimulation and measured after 2 hrs by luminex xMAP bead based assay; assay type: functional, organism-based; settings: dose 1-5 mg/kg, time 3.0 hrs
Mus musculus [2] = assay: Antiinflammatory activity LPS induced mouse model assessed as reduction in IL-9 at 1 to 5 mg/kg, ip preincubated for 1 hr followed by LPS stimulation and measured after 2 hrs by luminex xMAP bead based assay; assay type: functional, organism-based; settings: dose 1-5 mg/kg, time 3.0 hrs
Mus musculus [3] = assay: Antiinflammatory activity LPS induced mouse model assessed as reduction in interferon gamma induced protein 10 at 1 to 5 mg/kg, ip preincubated for 1 hr followed by LPS stimulation and measured after 2 hrs by luminex xMAP bead based assay; assay type: functional, organism-based; settings: dose 1-5 mg/kg, time 3.0 hrs
Mus musculus [4] = assay: Antiinflammatory activity LPS induced mouse model assessed as reduction in macrophage inflammatory protein-1alpha at 1 to 5 mg/kg, ip preincubated for 1 hr followed by LPS stimulation and measured after 2 hrs by luminex xMAP bead based assay; assay type: functional, organism-based; settings: dose 1-5 mg/kg, time 3.0 hrs
Mus musculus [5] = assay: Antiinflammatory activity LPS induced mouse model assessed as reduction in macrophage inflammatory protein-1 beta at 1 to 5 mg/kg, ip preincubated for 1 hr followed by LPS stimulation and measured after 2 hrs by luminex xMAP bead based assay; assay type: functional, organism-based; settings: dose 1-5 mg/kg, time 3.0 hrs
Mus musculus [6] = assay: Antiinflammatory activity ip /LPS induced mouse model assessed as upregulation of IL-10 level preincubated for 1 hr followed by LPS stimulation and measured after 2 hrs by luminex xMAP bead based assay; assay type: functional, organism-based; settings: dose 1-5 mg/kg, time 3.0 hrs, DDE = dose-dependent effect
[7] = Drug uptake in MOG (35 to 55 residues)-induced experimental autoimmune encephalomyelitis mouse aerosol at 25 microg/L by LC-MS/MS analysis; assay type: ADME; settings: in vivo, inhaled_or_intranasal, dose 25 µg/L
[8] = Drug uptake in MOG (35 to 55 residues)-induced experimental autoimmune encephalomyelitis mouse aerosol at 50 microg/L by LC-MS/MS analysis; assay type: ADME; settings: in vivo, inhaled_or_intranasal, dose 50 µg/L
[9] = Drug uptake in MOG (35 to 55 residues)-induced experimental autoimmune encephalomyelitis unimmunized mouse plasma at 25 microg/L by LC-MS/MS analysis; assay type: ADME; settings: dose 25 µg/L
[10] = Drug uptake in MOG (35 to 55 residues)-induced experimental autoimmune encephalomyelitis unimmunized mouse in plasma at 50 microg/L by LC-MS/MS analysis; assay type: ADME; settings: dose 50 µg/L
[11] = Drug uptake in MOG (35 to 55 residues)-induced experimental autoimmune encephalomyelitis immunized mouse in plasma at 50 microg/L by LC-MS/MS analysis; assay type: ADME; settings: dose 50 µg/L
Mus musculus [12] = organism: Mus musculus; assay: Antiinflammatory activity in MOG (35 to 55 residues)-induced experimental autoimmune encephalomyelitis mouse aerosol assessed as attenuation of body weight loss at 50 microg/L; assay type: functional, organism-based; settings: dose 50.0 µg/L
[13] = Antiinflammatory activity in MOG (35 to 55 residues)-induced experimental autoimmune encephalomyelitis mouse aerosol assessed as reduction in clinical score at 25 microg/L measured on 15 day (reference value: 1.9); assay type: ADME; settings: inhaled_or_intranasal, 360 h, dose 25 µg/L
[14] = Antiinflammatory activity in MOG (35 to 55 residues)-induced experimental autoimmune encephalomyelitis mouse aerosol assessed as reduction in clinical score at 25 microg/L measured on 16 day (reference value: 2.0); assay type: ADME; settings: inhaled_or_intranasal, 384 h, dose 25 µg/L
[15] = Drug uptake in rat aerosol at 2.5 microg/L via inhalation measured for 30 mins; assay type: ADME; settings: in vivo, inhaled_or_intranasal, 0.5 h, route inh, dose 2.5 µg/L
[16] = Drug uptake in rat aerosol at medium dose via inhalation measured for 30 mins; assay type: ADME; settings: in vivo, inhaled_or_intranasal, 0.5 h, route inh
[17] = Drug uptake in rat aerosol at 261.4 microg/L via inhalation measured for 30 mins; assay type: ADME; settings: in vivo, inhaled_or_intranasal, 0.5 h, dose 261.4 µg/L
[18] = Half life in rat at 0.06 mg/kg via inhalation; assay type: ADME, organism-based; settings: in vivo, inhaled or intranasal, route inh
[19] = Half life in rat at 0.40 mg/kg via inhalation; assay type: ADME, organism-based; settings: in vivo, inhaled or intranasal, route inh, dose 0.4 mg/kg
[20] = Half life in rat at 2.73 mg/kg via inhalation; assay type: ADME, organism-based; settings: in vivo, inhaled or intranasal, route inh
[21] = Cmax in rat at 0.06 mg/kg via inhalation; assay type: ADME, organism-based; set-up: dose 0.06 mg/kg, route inh; settings: in vivo, inhaled or intranasal
[22] = Cmax in rat at 0.40 mg/kg via inhalation; assay type: ADME, organism-based; set-up: dose 0.4 mg/kg, route inh; settings: in vivo, inhaled or intranasal, 0.4 mg/kg
[23] = Cmax in rat at 2.73 mg/kg via inhalation; assay type: ADME, organism-based; set-up: dose 2.73 mg/kg, route inh; settings: in vivo, inhaled or intranasal
[24] = AUC in rat at 0.06 mg/kg via inhalation; assay type: ADME, organism-based; set-up: dose 0.06 mg/kg, route inh; settings: in vivo, inhaled or intranasal
[25] = AUC in rat at 0.40 mg/kg via inhalation; assay type: ADME, organism-based; set-up: dose 0.4 mg/kg, route inh; settings: in vivo, inhaled or intranasal, 0.4 mg/kg
[26] = AUC in rat at 2.73 mg/kg via inhalation; assay type: ADME, organism-based; set-up: dose 2.73 mg/kg, route inh; settings: in vivo, inhaled or intranasal
[27] = Bioavailability in rat at 0.06 mg/kg via inhalation; assay type: ADME, organism-based; settings: in vivo, inhaled or intranasal, route inh
[28] = Bioavailability in rat at 0.40 mg/kg via inhalation; assay type: ADME, organism-based; settings: in vivo, inhaled or intranasal, route inh, dose 0.4 mg/kg
[29] = Bioavailability in rat at 2.73 mg/kg via inhalation; assay type: ADME, organism-based; settings: in vivo, inhaled or intranasal, route inh
[30] = Drug concentration in carrageenan-induced paw edema in rat respiratory tract at 77.9 microg/L via inhalation measured for 30 mins; assay type: ADME; settings: inhaled or intranasal, route inh, dose 77.9 µg/L, read-out: Drug uptake
[31] = Drug concentration in carrageenan-induced paw edema in rat respiratory tract at 230.7 microg/L via inhalation measured for 30 mins; assay type: ADME; settings: inhaled or intranasal, route inh, dose 230.7 µg/L, read-out: Drug uptake
[32] = Drug concentration in carrageenan-induced paw edema in rat respiratory tract at 254.3 microg/L via inhalation measured for 60 mins; assay type: ADME; settings: inhaled or intranasal, route inh, dose 254.3 µg/L, read-out: Drug uptake
Rattus norvegicus [33] = assay: Antiinflammatory activity in carrageenan-induced paw edema rat model assessed as inhibition of paw swelling at 5.34 mg/kg via inhalation measured at 2 hrs relative to control; assay type: functional; set-up: scale not given: the % may be the effect or the level left; settings: route inh
Rattus norvegicus [34] = assay: Antiinflammatory activity in carrageenan-induced paw edema rat model assessed as inhibition of paw swelling at 5 mg/kg, ip measured at 2 hrs relative to control; assay type: functional; set-up: scale not given: the % may be the effect or the level left
Rattus norvegicus [35] = assay: Antiinflammatory activity in carrageenan-induced paw edema rat model assessed as recovery of adverse effect at hypothermia at 5 mg/kg, ip or 20 mg/kg administered daily via whole body inhalation; assay type: functional, organism-based
Rattus norvegicus [36] = assay: Antiinflammatory activity in carrageenan-induced paw edema rat model assessed as recovery of adverse effect at tremor at 5 mg/kg, ip or 20 mg/kg administered daily via whole body inhalation; assay type: functional, organism-based

Structure (SMILES): C1=CCC(c2cccnc2)NC1 (stereo unspecified)
- Activity (Mus musculus [1]): Active
- Activity (Mus musculus [2]): Active
- Activity (Mus musculus [3]): Active
- Activity (Mus musculus [4]): Active
- Activity (Mus musculus [5]): Active
- Activity (Mus musculus [6]): Dde
- Drug uptake [7]: 24.8 ng/mL
- Drug uptake [8]: 50.6 ng/mL
- Cp [9]: 531.5 ng/mL
- Cp [10]: 1202.5 ng/mL
- Cp [11]: 1139.7 ng/mL
- Activity (Mus musculus [12]): Active
- Activity [13]: 0.6
- Activity [14]: 1.1
- Drug uptake [15]: 2.5 µg/L
- Drug uptake [16]: 25 µg/L
- Drug uptake [17]: 250 µg/L
- half-life [18]: 3.96 h
- half-life [19]: 3.84 h
- half-life [20]: 3.64 h
- Cmax [21]: 20 ng/mL
- Cmax [22]: 160 ng/mL
- Cmax [23]: 780 ng/mL
- AUC [24]: 91.2 ng·h/mL
- AUC [25]: 637 ng·h/mL
- AUC [26]: 3060 ng·h/mL
- bioavailability [27]: 76.5%
- bioavailability [28]: 80.1%
- bioavailability [29]: 56.4%
- concentration at 0.5 h [30]: 0.87 ng/mL
- concentration at 0.5 h [31]: 2.42 ng/mL
- concentration at 1 h [32]: 5.34 ng/mL
- Activity (Rattus norvegicus [33]): 39.6%
- Activity (Rattus norvegicus [34]): 46.1%
- Activity (Rattus norvegicus [35]): Active
- Activity (Rattus norvegicus [36]): Active

— ChEMBL document CHEMBL5096164, “In Vivo Profiling of a Natural Alkaloid, Anatabine, in Rodents: Pharmacokinetics and Anti-Inflammatory Efficacy” (J Nat Prod, 2021)
